Data published in US20060062758A1, “Tight junction modulator peptide PN159 for enhanced mucosal delivery of therapeutic compounds” (Nastech Pharmaceutical Comapny Inc., priority 2004, published 2006).

What was measured:
[1] = Permeation kinetics across the in vitro epithelial tissue model; conditions: human, pH 5, Papp; for Papp at 120 min, 40 mg/mL: galantamine 40 mg/mL pH 5.0, calcitonin 1 mg/mL pH 3.5, PTH1-34 1 mg/mL pH 4.5
Method: (§1) The EpiAirway™ system was developed by MatTek Corp (Ashland, Mass.) as a model of the pseudostratified epithelium lining the respiratory tract. The epithelial cells are grown on porous membrane-bottomed cell culture inserts at an air-liquid interface, which results in differentiation of the cells to a highly polarized morphology. The apical surface is ciliated with a microvillous ultrastructure and the epithelium produces mucus (the presence of mucin has been confirmed by immunoblotting). The inserts have a diameter of 0.875 cm, providing a surface area of 0.6 cm^2. The cells are plated onto the inserts at the factory approximately three weeks before shipping. One “kit” consists of 24 units.
(§2) A. A “kit” of 24 EpiAirway™ units can routinely be employed for evaluating five different formulations, each of which is applied to quadruplicate wells. Each well is employed for determination of permeation kinetics (4 time points), transepithelial electrical resistance (TER). An additional set of wells is employed as controls, which are sham treated during determination of permeation kinetics, but are otherwise handled identically to the test sample-containing units for determinations of transepithelial resistance and viability.
(§3) B. In all experiments, the mucosal delivery formulation to be studied is applied to the apical surface of each unit in a volume of 100 μL, which is sufficient to cover the entire apical surface. An appropriate volume of the test formulation at the concentration applied to the apical surface (no more than 100 μL is generally needed) is set aside for subsequent determination of concentration of the active material by ELISA or other designated assay.
(§4) D. In order to minimize potential sources of error and avoid any formation of concentration gradients, the units are transferred from one 0.9 mL-containing well to another at each time point in the study. These transfers are made at the following time points, based on a zero time at which the 100 μL volume of test material was applied to the apical surface: 15 minutes, 30 minutes, 60 minutes, and 120 minutes.
(§5) F. At the completion of each time point, the medium is removed from the well from which each unit was transferred, and aliquotted into two tubes (one tube receives 700 μL and the other 200 μL) for determination of the concentration of permeated test material and, in the event that the test material is cytotoxic, for release of the cytosolic enzyme, lactate dehydrogenase, from the epithelium. These samples are kept in the refrigerator if the assays are to be conducted within 24 hours, or the samples are subaliquotted and kept frozen at −80° C. until thawed once for assays. Repeated freeze-thaw cycles are to be avoided.
(§6) EIA kit (p/n S-1178(EIAH6101) was purchased from Peninsula Laboratories Inc. (Division of BACHEM, San Carlos, Calif., 800-922-1516). 17×120 mm polypropylene conical tubes (p/n 352097, Falcon, Franklin Lakes, N.J.) were used for all sample preparations. Eight standards were used for PTH quantitation. The rest of the assay procedure was the same as the kit inserts.
(§7) The instant study was designed to evaluate the effect of PN159 itself or in combination with additional permeation enhancers on PTH permeation. The PN159 concentrations evaluated are 25, 50, and 100 μM. The additional permeation enhancers are 45 mg/ml M-β-CD, 1 mg/ml DDPC, and 1 mg/ml EDTA. Sorbitol was used as a tonicifier (146-190 mM) to adjust the osmolarity of formulations to 220 mOsm/kg. The formulation pH was fixed at 4.5. PTH was chosen as a model peptide in this example. 2 mg/ml PTH was combined with PN159 with or without additional permeation enhancers. The combination was tested using an in vitro epithelial tissue model to monitor PTH permeation, transepithelial electrical resistance (TER), and the cytotoxicity of the formulation by LDH assay.
(§8) The effect of PN159 on permeation of MC-4RA was evaluated in this study.

[2] = tested on: EpiAirway™ Cell Membrane (mucosal epithelial cell layer); test: as above
Method: as §1, §2, §3, §4, §5, §6, §7, §8

[3] = tested on: EpiAirway™ Cell Membrane (mucosal epithelial cell layer); test: LDH assay (cytotoxicity), in vitro epithelial tissue model; format: cell-based; conditions: Example 2, PTH study; PN159 25-100 μM
Method: Repeated freeze-thaw cycles are to be avoided.
The amount of cell death was assayed by measuring the loss of lactate dehydrogenase (LDH) from the cells using a CytoTox 96 Cytoxicity Assay Kit (Promega Corp., Madison, Wis.). Fifty microliters of sample was loaded into a 96-well assay plates. Fresh, cell-free culture medium was used as a blank. 50 μl of substrate solution was added to each well and the plates incubated for 30 minutes at room temperature in the dark. Following incubation, 50 μl of stop solution was added to each well and the plates read on an optical density plate reader at 490 nm.
(§9) The formulation pH was fixed at 4.5.

[4] = tested on: EpiAirway™ Cell Membrane (mucosal epithelial cell layer); test: Transepithelial electrical resistance (TER), EpiAirway in vitro epithelial tissue model; format: cell-based; conditions: Example 2, PTH formulation study, applied to apical side
Description: One “kit” consists of 24 units.
A. Respiratory airway epithelial cells form tight junctions in vivo as well as in vitro, and thereby restrict the flow of solutes across the tissue. These junctions confer a transepithelial resistance of several hundred ohms×cm^2 in excised airway tissues. In the MatTek EpiAirway™ units, the transepithelial electrical resistance (TER) is reported by the manufacturer to be routinely around 1000 ohms×cm^2. […] The porous membrane-bottomed units without cells, conversely, provide only minimal transmembrane resistance (approximately 5-20 ohms×cm^2).
B. Accurate determinations of TER require that the electrodes of the ohmmeter be positioned over a significant surface area above and below the membrane, and that the distance of the electrodes from the membrane be reproducibly controlled. The method for TER determination recommended by MatTek and employed for all experiments herein employs an “EVOM”™ epithelial voltohmmeter and an “ENDOHM”™ tissue resistance measurement chamber from World Precision Instruments, Inc., Sarasota, Fla.
D. Determinations of TER are made with 1.5 mL of PBS in the chamber and 350 μL of PBS in the membrane-bottomed unit being measured. The top electrode is adjusted to a position just above the membrane of a unit containing no cells (but containing 350 μL of PBS) and then fixed to ensure reproducible positioning. The resistance of a cell-free unit is typically 5-20 ohms×cm^2 (“background resistance”).
G. The unit is gently blotted free of excess PBS on its exterior surface only before being placed into the chamber (containing a fresh 1.5 mL aliquot of PBS). An aliquot of 350 μL PBS is added to the unit before the top electrode is placed on the chamber and the TER is read on the EVOM meter.
I. The units are read in the following sequence: all sham-treated controls, followed by all formulation-treated samples, followed by a second TER reading of each of the sham-treated controls. All TER values are reported as a function of the surface area of the tissue.
TER was calculated as: TER=(R1−Rb)×A Where R1 is resistance of the insert with a membrane, Rb is the resistance of the blank insert, and A is the area of the membrane (0.6 cm^2). The effect of pharmaceutical formulations comprising intranasal delivery-enhancing agents, for example, permeabilizing peptides as measured by TER across the EpiAirway™ Cell Membrane (mucosal epithelial cell layer). Permeabilizing peptides are applied to the EpiAirway™ Cell Membrane at a concentration of 1.0 mM. A decrease in TER value relative to the control value (control=approximately 1000 ohms-cm^2; normalized to 100.) indicates a decrease in cell membrane resistance and an increase in mucosal epithelial cell permeability.
as §9

Molecule: COc1ccc2c3c1O[C@H]1C[C@@H](O)C=C[C@@]31CCN(C)C2 [Galantamine, galantamine, reference compound]
- Papp at 120 min, 40 mg/mL ([1]; [PN159] 0 μM, PYY3-36 1 mg/mL, pH was 5.0): ~2.1 ×10⁻⁶ cm/s
- Papp at 120 min, 40 mg/mL ([1]; [PN159] 25 μM, PYY3-36 1 mg/mL pH 7.0): 5.1 ×10⁻⁶ cm/s
- Papp at 120 min, 40 mg/mL ([1]; [PN159] 50 μM): 6.2 ×10⁻⁶ cm/s
- Papp at 120 min, 40 mg/mL ([1]; [PN159] 100 μM, PYY3-36 1 mg/mL pH 7.0): 7.2 ×10⁻⁶ cm/s
- Papp at 120 min, 40 mg/ml ([1]; in the presence of 25 nM PN159 (as printed in text)): 5.1 ×10⁻⁶ cm/s
- Papp at 120 min, 40 mg/ml ([1]; in the presence of 50 nM PN159 (as printed in text)): 6.2 ×10⁻⁶ cm/s
- Papp at 120 min, 40 mg/ml ([1]; in the presence of 100 nM PN159 (as printed in text)): 7.2 ×10⁻⁶ cm/s
- Papp ([2]; [PN159] 0 μM, galantamine 40 mg/mL pH 5.0, calcitonin 1 mg/mL pH 3.5, PTH1-34 1 mg/mL pH 4.5, PYY3-36 1 mg/mL, pH was 5.0): 2.1 ×10⁻⁶ cm/s
- increase in Papp ([2]; drug in the presence of PN159 vs drug alone): 2.5-3.5 fold

Molecule: Triton X [reference compound]
- cytotoxicity (LDH) [3]: significant cytotoxicity
- TER reduction (in words) [4]: significant TER reduction
